Measured values: ChEMBL document CHEMBL4433235, “Discovery of piperazic acid peptide deformylase inhibitors with in vivo activity for respiratory tract and skin infections” (Bioorg Med Chem Lett, 2019)
≈ marks a conversion by molar mass, not a printed value.

Legend:
[1] = molecular target: T1, Peptide deformylase (Staphylococcus aureus, UniProt P68826); experiment: Inhibition of Staphylococcus aureus PDF by absorbance detection assay
T1 sequence (P68826 whole entry): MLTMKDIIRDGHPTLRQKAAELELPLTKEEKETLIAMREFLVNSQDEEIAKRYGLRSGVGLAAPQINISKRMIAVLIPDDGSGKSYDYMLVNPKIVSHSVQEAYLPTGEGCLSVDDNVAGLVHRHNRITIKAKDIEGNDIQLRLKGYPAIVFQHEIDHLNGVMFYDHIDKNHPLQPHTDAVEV

[2] = Inhibition of Haemophilus influenzae PDF by absorbance detection assay
[3] = Inhibition of Streptococcus pneumoniae PDF by absorbance detection assay
[4] = system: Staphylococcus aureus; experiment: Antimicrobial activity against Staphylococcus aureus Oxford; format: functional
[5] = system: Haemophilus influenzae; experiment: Antimicrobial activity against Haemophilus influenzae Q1; format: functional
[6] = system: Streptococcus pneumoniae; experiment: Antimicrobial activity against Streptococcus pneumoniae 1629; format: functional
[7] = Chromatographic hydrophobicity index, log D of compound at pH 7.4; format: physicochemical; conditions: buffer
[8] = Solubility of compound by chemiluminescent nitrogen detection assay; format: physicochemical
[9] = molecular target: T1, Peptide deformylase; experiment: Inhibition of Staphylococcus aureus PDF by fluorescence detection assay
[10] = Inhibition of Haemophilus influenzae PDF by fluorescence detection assay
[11] = Inhibition of Streptococcus pneumoniae PDF by fluorescence detection assay
[12] = system: Staphylococcus aureus; experiment: Antimicrobial activity against Staphylococcus aureus; format: functional
[13] = system: Haemophilus influenzae; experiment: Antimicrobial activity against Haemophilus influenzae; format: functional
[14] = system: Streptococcus pneumoniae; experiment: Antimicrobial activity against Streptococcus pneumoniae; format: functional
[15] = molecular target: T2, Peptide deformylase (Escherichia coli, UniProt Q9JN24); experiment: Inhibition of Escherichia coli PDF
T2 sequence (Q9JN24 whole entry): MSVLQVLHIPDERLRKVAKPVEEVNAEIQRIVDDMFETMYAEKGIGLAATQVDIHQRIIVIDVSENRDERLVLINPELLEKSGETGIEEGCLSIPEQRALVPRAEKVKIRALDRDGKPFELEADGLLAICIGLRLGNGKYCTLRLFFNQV

[16] = system: Streptococcus pneumoniae; experiment: Antimicrobial activity against Streptococcus pneumoniae Ery-2 in presence of clavulanic acid; format: functional
[17] = system: Streptococcus pneumoniae; experiment: Antimicrobial activity against Streptococcus pneumoniae Ery-2 infected in respiratory tract infection rat model assessed as log reduction in bacterial CFU at 350 mg/kg, po BID dosed 1 hr post infection and measured for 96 hrs in presence of 50 mg/kg clavulanic acid; format: functional
[18] = Half life in rat at 3.9 mg/kg, iv; format: ADME, organism-based; conditions: in vivo
[19] = Clearance in rat at 3.9 mg/kg, iv; format: ADME, organism-based; conditions: in vivo
[20] = Volume of distribution at steady state in rat at 3.9 mg/kg, iv; format: ADME, organism-based; conditions: in vivo, read-out: Vdss
[21] = AUC in rat at 3.9 mg/kg, iv; format: ADME, organism-based; conditions: in vivo
[22] = Cmax in rat at 8.5 mg/kg, po; format: ADME, organism-based; set-up: dose 8.5 mg/kg, route oral; conditions: in vivo
[23] = AUC in rat at 8.5 mg/kg, po; format: ADME, organism-based; conditions: in vivo
[24] = Oral bioavailability in rat at 8.5 mg/kg; format: ADME, organism-based; conditions: in vivo

Compound	IC50 [1]	IC50 [3]	MIC [4]	MIC [5]	MIC [6]	CHI [7]	solubility kinetic [8]	IC50 [9]	IC50 [10]	IC50 [11]	MIC90 [12]	MIC90 [13]	MIC90 [14]	also measured
CN(C(=O)[C@@H]1CCCNN1C(=O)[C@H](CC1CCCC1)CN(O)C=O)c1ccccn1	18 nM	8 nM	4 µg/mL (≈ 9.58 µM)	4 µg/mL (≈ 9.58 µM)	2 µg/mL (≈ 4.79 µM)	3.3	> 657 µM	–	–	–	–	–	–	IC50 [2]: 15 nM
O=CN(O)C[C@@H](CC1CCCC1)C(=O)N1NCCC[C@H]1C(=O)Nc1cccc2c1COB2O	–	–	2 µg/mL (≈ 4.36 µM)	0.5 µg/mL (≈ 1.09 µM)	8 µg/mL (≈ 17.5 µM)	3.2	> 544 µM	158 nM	79 nM	40 nM	–	–	–	–
CCC(=O)[C@@H](NC(=O)[C@@H]1CCCNN1C(=O)[C@@H](CC(=O)O)CC(C)C)C(C)C	–	–	–	–	–	–	–	–	–	–	–	–	–	Ki [15]: 60 nM
CN1CCN(c2cc(NC(=O)[C@@H]3CCCNN3C(=O)[C@H](CC3CCCC3)CN(O)C=O)ncn2)CC1	–	–	0.5 µg/mL (≈ 0.995 µM)	2 µg/mL (≈ 3.98 µM)	0.25 µg/mL (≈ 0.497 µM)	2.7	> 573 µM	3 nM	25 nM	1 nM	0.5 µg/mL (≈ 0.995 µM)	2 µg/mL (≈ 3.98 µM)	0.25 µg/mL (≈ 0.497 µM)	–
CN(C)c1cc(NC(=O)[C@@H]2CCCNN2C(=O)[C@H](CC2CCCC2)CN(O)C=O)ncn1	–	–	0.5 µg/mL (≈ 1.12 µM)	2 µg/mL (≈ 4.47 µM)	0.5 µg/mL (≈ 1.12 µM)	3.38	> 649 µM	1 nM	13 nM	0.3 nM	–	–	–	–
CC1(C)S[C@@H]2[C@H](NC(=O)[C@H](N)c3ccc(O)cc3)C(=O)N2[C@H]1C(=O)O [AMOXICILLIN]	–	–	–	–	–	–	–	–	–	–	–	–	–	MIC [16]: 0.03 µg/mL; Activity [17]: 5.2 log10CFU/ml
Cc1nc(NNC(=O)[C@H](CC2CCCC2)CN(O)C=O)c(F)c(N2CCN3CCOC[C@@H]3C2)n1 [LANOPEPDEN]	12 nM	3 nM	2 µg/mL (≈ 4.17 µM)	0.5 µg/mL (≈ 1.04 µM)	1 µg/mL (≈ 2.09 µM)	2.54	241 µM (≈ 116 µg/mL)	–	–	–	4 µg/mL (≈ 8.34 µM)	2 µg/mL (≈ 4.17 µM)	1 µg/mL (≈ 2.09 µM)	IC50 [2]: 3 nM; half-life [18]: 42 min; clearance [19]: 88 mL/min/kg; Vd [20]: 2.5 L/kg; AUC [21]: 720 ng·h/mL; Cmax [22]: 902 ng/mL; AUC [23]: 1450 ng·h/mL; bioavailability [24]: 91%

Second part, led by results:

IC50 [1]	IC50 [3]	MIC [4]	MIC [5]	MIC [6]	CHI [7]	solubility kinetic [8]	IC50 [9]	IC50 [10]	IC50 [11]	MIC90 [12]	MIC90 [13]	MIC90 [14]	Compound	also measured
2 nM	1 nM	0.5 µg/mL (≈ 1.24 µM)	0.5 µg/mL (≈ 1.24 µM)	1 µg/mL (≈ 2.48 µM)	3.71	> 463 µM	–	–	–	–	–	–	O=CN(O)C[C@@H](CC1CCCC1)C(=O)N1NCCC[C@H]1C(=O)Nc1ccccn1	IC50 [2]: 3 nM
–	–	1 µg/mL (≈ 2.4 µM)	1 µg/mL (≈ 2.4 µM)	2 µg/mL (≈ 4.79 µM)	4.1	> 565 µM	2 nM	25 nM	0.6 nM	1 µg/mL (≈ 2.4 µM)	4 µg/mL (≈ 9.58 µM)	2 µg/mL (≈ 4.79 µM)	Cc1ccc(NC(=O)[C@@H]2CCCNN2C(=O)[C@H](CC2CCCC2)CN(O)C=O)nc1	–
–	–	4 µg/mL (≈ 8.96 µM)	4 µg/mL (≈ 8.96 µM)	0.5 µg/mL (≈ 1.12 µM)	4.88	> 364 µM	20 nM	32 nM	8 nM	–	–	–	CN(C)c1cccc(NC(=O)[C@@H]2CCCNN2C(=O)[C@H](CC2CCCC2)CN(O)C=O)n1	–
–	–	1 µg/mL (≈ 2.4 µM)	2 µg/mL (≈ 4.79 µM)	2 µg/mL (≈ 4.79 µM)	4.05	> 565 µM	2 nM	40 nM	0.4 nM	1 µg/mL (≈ 2.4 µM)	4 µg/mL (≈ 9.58 µM)	1 µg/mL (≈ 2.4 µM)	Cc1ccnc(NC(=O)[C@@H]2CCCNN2C(=O)[C@H](CC2CCCC2)CN(O)C=O)c1	–
2 nM	0.6 nM	0.5 µg/mL (≈ 1.19 µM)	0.5 µg/mL (≈ 1.19 µM)	1 µg/mL (≈ 2.37 µM)	4.13	> 739 µM	–	–	–	1 µg/mL (≈ 2.37 µM)	2 µg/mL (≈ 4.75 µM)	2 µg/mL (≈ 4.75 µM)	O=CN(O)C[C@@H](CC1CCCC1)C(=O)N1NCCC[C@H]1C(=O)Nc1ccc(F)cn1	–
